{"source": "patent US8163776B2", "about": "“Method of immunomodulation using thione-forming disulfides” (Grassetti family Trust, priority 2001, dated 2012)", "key": {"[1]": {"test_system": "lymphocytes", "assay": "Mitogenic proliferation of splenocytes (3H-thymidine incorporation)", "format": "in vivo, BALB/c mice", "description": "Splenocytes were diluted to a concentration of 1×10^6 cells/ml in complete RPMI media. Aliquots of 100 μl were transferred into a 96 well flat bottom plate. Mitogen stock solutions were prepared at a concentration of 1 mg/ml in D-PBS and frozen at −20° C. Working solution were prepared freshly in complete RPMI media at the following concentration (10×): 500 μg/ml PHA, 50 μg/ml concanavalin A (con A), and 50 μg/ml LPS. Aliquots of 100 μl of each mitogens were transferred in triplicate in the corresponding wells. Final concentration (1×) in each well was 50 μg/ml PHA, 5 μg/ml con A, and 5 μg/ml LPS. For negative control, 100 μl of complete RPMI media was added in triplicate, instead of the mitogens. Cells were incubated for a total of 72 hours in 37° C., 5% CO2, humidified incubator. Twenty hours before the end of the incubation, 1 μCi per well of ^3H-thymidine was added to each well. Cells were harvested using a Harvester® 96 from Tomtec. Filters were transferred into scintillation vials. Scintillation liquid, 4 ml was added to each vial. Radioactivity was counted using Beckman LS-6500 Beta counter. The results were expressed in CPM. The mean and standard deviation of triplicate samples are calculated. Results are expressed as stimulation index (SI) as follows:\n[formula] • where experimental value=with mitogens (PHA, ConA and LPS) and control value=with RPMI. For each mitogen, results were compared and Student's T test was performed between the control group and the treated group. The p value was calculated for statistical significance.\nThe lymphoproliferative response is a widely studied function of T and B lymphocytes. Three different mitogens with different specificity for different lymphocyte subsets were used. PHA and ConA are standard mitogens that stimulate mice T cells and LPS is a mitogen which stimulates B cells. Results are expressed in proliferation capacity (Table 10 and FIGS. 5 and 6). […] This potential may present some therapeutic application against some immune dysfunctions where the lymphoproliferative response is impaired (e.g., viral infections)."}, "[2]": {"test_system": "feline immunodeficiency virus (FIV)", "assay": "CPDS in an FIV-positive cat with FIDS symptoms (Example 10)", "format": "in vivo", "excerpt": "A very ill, young, spayed male cat ws presented with symptoms of feline immunodeficiency syndrome (FIDS). He had fever, diarrhea, and his glands were swollen. His coat was dull and the cat was listless.\nHis blood tested positive for feline immunodeficiency syndrome (FIV), as determined by ELISA testing with feline immunodeficiency virus antibody from Indexx Laboratories (Westbrook, Me.). The cat's weight upon presentation was 9.5 lbs.\nTreatment of the cat with CPDS commenced the same day with a daily dose of 280 mg CPDS in the cat's diet. The regimen was continued for 30 days. […] The hair on the cat's muzzle and back was still thin. CPDS treatment was continued at 140 mg/day for another 60 days. […] His coat was rich and shiny, his eyes became bright, and his behavior was normal for a spayed male cat. The cat's weight after 60 days of treatment was 10.2 lbs, a gain of about 300 grams."}, "[3]": {"test_system": "feline immunodeficiency virus (FIV)", "assay": "CPDS in an FIV-infected cat (Example 8)", "format": "in vivo", "description": "A cat infected with feline immunodeficiency virus (FIV) was given 140 mg CPDS each morning. The CPDS was mixed with the cat's chow (food). The 140 mg CDPS dosage regimen was continued for 2 weeks. At this time, the cat's overall conditions (thin facial hair, dull eyes, excorations of the skin, appetite, general behavior) improved. After the 2 week timepoint, the dosage regimen was increased to 140 mg CPDS every morning and night (280 mg CPDS daily), mixed in the cat chow. […] The cat's eyes were bright, facial hair was thick, appearance of hair was shiny, and the cat regained its appetite and gained 300 g in weight."}, "[4]": {"test_system": "antibody production to keyhole limpet hemocyanin (KLH)", "assay": "Humoral response to KLH immunization, immunodot blot", "format": "in vivo, BALB/c mice", "description": "To perform KLH immunization, KLH was prepared in sterile D-PBS at a concentration of 150 μg in 0.1 ml. Animals were injected 0.1 ml of the preparation subcutaneously. After 15 days and just before sacrifice, a blood sample was collected from each mouse by cardiac puncture. Serum was obtained by centrifugation, aliquoted and frozen (−20° C.) until used.\nImmunodot blot assay was used to assess antibody production. Hybond-ECL membrane was used in the immunodot blot assay. A volume of 2 μl of different concentrations (0, 10, 50, 250 μg/ml) of KLH antigen was placed on the dry membrane. Antigen dots were allowed to dry overnight at 4° C. Membrane was blocked with a dry milk solution for 1 hour. Two μl of the antiserum diluted ½, ¼, 1/16, 1/32, 1/64, 1/128 and undiluted was put on the blot and incubated for 1 hour. The membrane was washed with TES buffer solution 3 times. Goat anti-mouse IgG antibodies coupled with horseradish peroxidase were put on the blot and incubated for 1 hour. The membrane was washed with TBS buffer solution 3 times. […] Revelation time was 1 minute. The membrane was exposed for 18 hours to film.\nThe lower serum dilution where an antibody response is apparent was chosen to calculate antibody titer. The antibody titer corresponded to the inverse of the dilution. The titer was converted to log2, e.g., 8=3 (log2). Results were compared and Student's T test was performed between the control group and the treated group. The p value was calculated for statistical significance.\nFor this experiment, animals were treated with CPDS for 30 days, immunized subcutaneously with keyhole limpet hemocyanin (KLH) and treated an additional 15 days, at which point blood was collected for antibody detection. […] The antibody titer to KLH was 1/4.29 (2.13 log2) for control group and 1/2.00 (1.00 log2) for CPDS-treated group. The decrease in the antibody production may be partially related to the significant decrease in the B cell population observed in the immunophenotyping results. However, no loss of reactivity was observed from the lymphoproliferative assay when B cells were stimulated with LPS."}, "[5]": {"conditions": "30 days on CPDS diet vs normal diet"}, "[6]": {"conditions": "30 days on CPDS diet, Mean ± S.D."}, "[7]": {"conditions": "Group 6, 6 days on CPDS diet, Mean ± S.D."}, "[8]": {"conditions": "FIV-positive cat, end of thirty days at 280 mg CPDS daily"}}, "note": "Several values for one entry are separate records, joined by “and”; a condition that tells them apart may be missing. Identical values can stand only once.", "data": [{"smiles": "O=C(O)c1ccc(SSc2ccc(C(=O)O)cn2)nc1", "note": "[CPDS, 6,6′-dithiodinicotinic acid]", "values": [{"measurement": "Mitogenic Proliferation (SI), LPS, effect of CPDS diet", "setting": "[1]; 6 days, n=3", "value": "No effect"}, {"measurement": "Mitogenic Proliferation (SI), PHA, effect of CPDS diet", "setting": "[1]; 6 days, n=3", "value": "No effect"}, {"measurement": "Mitogenic Proliferation, LPS", "setting": "[1]; 30 days on CPDS diet (samples G2-1 to G2-8), individual mice, 5 μg/ml LPS", "value": "3799.3 and 1426.0 and 4760.0 and 4304.7 and 842.0 and 1407.3 and 2438.0 and 2039.3"}, {"measurement": "Mitogenic Proliferation, CON A", "setting": "[1]; 30 days on CPDS diet (samples G2-1 to G2-8), individual mice, 5 μg/ml con A", "value": "6928.7 and 2621.3 and 11240.7 and 8041.3 and 915.3 and 1023.3 and 3308.7 and 4993.3"}, {"measurement": "Mitogenic Proliferation, PHA", "setting": "[1]; 30 days on CPDS diet (samples G2-1 to G2-8), individual mice, 50 μg/ml PHA", "value": "3565.3 and 1168.0 and 2175.3 and 2300.0 and 603.3 and 717.3 and 1652.6 and 886.0"}, {"measurement": "Mitogenic Proliferation, No stimulation", "setting": "[1]; 30 days on CPDS diet (samples G2-1 to G2-8), individual mice, no unit in table, method: CPM", "value": "78.0 and 69.3 and 66.7 and 82.0 and 57.3 and 72.7 and 72.0 and 58.7"}, {"measurement": "Mitogenic Proliferation, CON A, Variation(%)", "setting": "[1]; [5]", "value": 210.2, "unit": "%"}, {"measurement": "Mitogenic Proliferation, LPS, Variation(%)", "setting": "[1]; [5]", "value": 82.0, "unit": "%"}, {"measurement": "Mitogenic Proliferation, No stimulation, Variation(%)", "setting": "[1]; [5]", "value": 0.2, "unit": "%"}, {"measurement": "Mitogenic Proliferation, PHA, Variation(%)", "setting": "[1]; [5]", "value": 144.4, "unit": "%"}, {"measurement": "Mitogenic Proliferation, CON A", "setting": "[1]; [6]", "value": "4984.1 ± 3641"}, {"measurement": "Mitogenic Proliferation, LPS", "setting": "[1]; [6]", "value": "2627.1 ± 1475"}, {"measurement": "Mitogenic Proliferation, No stimulation", "setting": "[1]; [6]", "value": "69.6 ± 8"}, {"measurement": "Mitogenic Proliferation, PHA", "setting": "[1]; [6]", "value": "1633.4 ± 1010"}, {"measurement": "Mitogenic Proliferation (SI), LPS, effect of CPDS diet", "setting": "[1]; 30 days, n=8, arrow image = increase", "value": "tendency to increase"}, {"measurement": "Mitogenic Proliferation, CON A", "setting": "[1]; [7]", "value": "4441.8 ± 1733"}, {"measurement": "Mitogenic Proliferation, LPS", "setting": "[1]; [7]", "value": "937.9 ± 232"}, {"measurement": "Mitogenic Proliferation, No stimulation", "setting": "[1]; [7]", "value": "50.5 ± 23"}, {"measurement": "Mitogenic Proliferation, PHA", "setting": "[1]; [7]", "value": "205.3 ± 74"}, {"measurement": "Mitogenic Proliferation, LPS", "setting": "[1]; Group 6, 6 days on CPDS diet, individual mice, 5 μg/ml LPS, no unit in table, method: CPM", "value": "1052.0 and 670.0 and 1091.3"}, {"measurement": "Mitogenic Proliferation, CON A", "setting": "[1]; Group 6, 6 days on CPDS diet, individual mice, 5 μg/ml con A, no unit in table, method: CPM", "value": "4876.7 and 2532.0 and 5916.7"}, {"measurement": "Mitogenic Proliferation, PHA", "setting": "[1]; Group 6, 6 days on CPDS diet, individual mice, 50 μg/ml PHA, no unit in table, method: CPM", "value": "237.3 and 120.0 and 258.7"}, {"measurement": "Mitogenic Proliferation, No stimulation", "setting": "[1]; Group 6, 6 days on CPDS diet, individual mice, no unit in table, method: CPM", "value": "78.0 and 34.7 and 38.7"}, {"measurement": "Proliferation with all three mitogens (PHA, ConA, LPS), in words", "setting": "[1]; after 6 days of treatment with CPDS", "value": "tendency towards an increase"}, {"measurement": "Cat's health", "setting": "[2]; FIV-positive cat, 280 mg CPDS daily in diet, after a few days", "value": "showed improvement"}, {"measurement": "Symptoms (fever, diarrhea, swollen glands)", "setting": "[2]; [8]", "value": "fever had subsided, the diarrhea was gone, its glands were no longer swollen"}, {"measurement": "Test for the FIDS antibody", "setting": "[2]; [8]", "value": "still tested positive"}, {"measurement": "Overall state of the cat", "setting": "[2]; after 30 days at 280 mg/day and another 60 days at 140 mg/day", "value": "appeared to be healed"}, {"measurement": "Weight gain of the cat", "setting": "[2]; after 60 days of treatment vs presentation", "value": "about 300 grams"}, {"measurement": "Cat's weight after treatment", "setting": "[2]; after 60 days of treatment, 9.5 lbs upon presentation", "value": 10.2, "unit": "lbs"}, {"measurement": "Cat's overall conditions (facial hair, eyes, skin, appetite, general behavior)", "setting": "[3]; FIV-infected cat, 140 mg CPDS each morning in chow for 2 weeks", "value": "improved"}, {"measurement": "Physical condition, appearance and behavior", "setting": "[3]; FIV-infected cat, 280 mg CPDS daily for a total of 59 days", "value": "improved physical condition, improved overall physical appearance, and improved behavior"}, {"measurement": "Weight gained by the cat", "setting": "[3]; FIV-infected cat, after 30 days", "value": 300, "unit": "g"}, {"measurement": "Cat's overall conditions", "setting": "[3]; FIV-infected cat, after 30 days, 280 mg CPDS daily after week 2", "value": "overall conditions had improved"}, {"measurement": "Health of the cat at follow-up", "setting": "[3]; after treatment for 100 days and a year and half after treatment", "value": "appeared entirely healthy"}, {"measurement": "Humoral response to KLH, variation (%)", "setting": "[4]; Group 4, 45 days on CPDS diet vs Group 3", "value": "−52.94", "unit": "%"}, {"measurement": "Serum dilution (lowest with apparent antibody response to KLH)", "setting": "[4]; Group 4, 45 days on CPDS diet, KLH s.c. at day 30, serum 15 days later, individual mice", "value": "1/4 (4×) and 0 (4×)"}, {"measurement": "dilution log 2 (antibody titer to KLH)", "setting": "[4]; Group 4, 45 days on CPDS diet, Mean ± S.D.", "value": "1.00 log 2 and 1.00 ± 1.07 log 2"}, {"measurement": "dilution log 2 (antibody titer to KLH)", "setting": "[4]; Group 4, 45 days on CPDS diet, individual mice", "value": "2 log 2 (4×) and 0 log 2 (4×)"}]}]}
